Results published in patent US4272437A, “Antibacterial agents, and 4-thio azetidinone intermediates” (priority 1979, dated 1981).
Values after ≈ are worked out from the molar mass of the structure shown.

What was measured:
[1] = test system: Proteus rettgeri A21203; test: MIC, tube dilution, Proteus rettgeri A21203; format: cell-based; conditions: overnight 37° C.; for MIC: Providencia rettgeri, A21203, Proteus rettgeri A21203, read-out: Minimum Inhibitory Concentration (M.I.C.); for Minimum Inhibitory Concentration (M.I.C.): Proteus rettgeri A21203
Source text: (§1) Representative compounds of the present invention were subjected to in vitro antibiotic screening against a variety of microorganisms.

[2] = test system: Klebsiella species A20468; test: MIC, tube dilution, Klebsiella species A20468; format: cell-based; conditions: Klebsiella species (K. pneumoniae) A20468, overnight 37° C.; for MIC: read-out: Minimum Inhibitory Concentration (M.I.C.)
Source text: as §1

[3] = test system: E. coli A-20341-1; test: MIC, tube dilution, Escherichia coli A20341-1; format: cell-based; conditions: overnight 37° C.; for MIC: Escherichia coli, A203411, E. coli A20341-1, read-out: Minimum Inhibitory Concentration (M.I.C.); for Minimum Inhibitory Concentration (M.I.C.): E. coli A20341-1
Source text: as §1

[4] = test system: Ps. aeruginosa A-9843A; test: MIC, tube dilution, Pseudomonas aeruginosa A9843A; format: cell-based; conditions: overnight 37° C.; for MIC: Pseudomonas aeruginosa, A9843A, read-out: Minimum Inhibitory Concentration (M.I.C.), Pseudomonas aeruginosa A9843A; for Minimum Inhibitory Concentration (M.I.C.): Pseudomonas aeruginosa A9843A
Source text: as §1

[5] = test system: Staph. aureus A-9537; test: MIC, tube dilution, Staphylococcus aureus A9537; format: cell-based; conditions: overnight 37° C., Nutrient Broth; for MIC: Staphylococcus aureus, A9537, Staph. aureus A9537, read-out: Minimum Inhibitory Concentration (M.I.C.); for Minimum Inhibitory Concentration (M.I.C.): Staph. aureus A9537
Source text: as §1

[6] = test system: Str. pneumoniae A-9585; test: MIC, tube dilution, Streptococcus pneumoniae A9585; format: cell-based; conditions: overnight 37° C., Nutrient Broth; for MIC: Streptococcus pneumoniae, A9585, Str. pneumoniae A9585, read-out: Minimum Inhibitory Concentration (M.I.C.); for Minimum Inhibitory Concentration (M.I.C.): Str. pneumoniae A9585
Source text: as §1

[7] = test system: E. coli A-15119; test: MIC, tube dilution, Escherichia coli A15119; format: cell-based; conditions: overnight 37° C.; for MIC: Escherichia coli, A15119, E. coli A15119, read-out: Minimum Inhibitory Concentration (M.I.C.); for Minimum Inhibitory Concentration (M.I.C.): E. coli A15119
Source text: as §1

[8] = test system: Pr. mirabilis A-9900; test: MIC, tube dilution, Proteus mirabilis A9900; format: cell-based; conditions: overnight 37° C.; for MIC: Proteus mirabilis, A9900, Proteus mirabilis A9900, read-out: Minimum Inhibitory Concentration (M.I.C.); for Minimum Inhibitory Concentration (M.I.C.): Proteus mirabilis A9900
Source text: as §1

[9] = test system: Staph. aureus (Meth-Res) A-15097; test: MIC, tube dilution, Staphylococcus aureus A15097 (Meth-Res); format: cell-based; conditions: Staph. aureus A15097 (Meth-Res), overnight 37° C.; for MIC: Staphylococcus aureus, read-out: Minimum Inhibitory Concentration (M.I.C.)
Source text: as §1

[10] = test system: Pr. morganii A-15153; test: MIC, tube dilution, Proteus morganii A15153; format: cell-based; conditions: overnight 37° C.; for MIC: Morganella morganii, A15153, Proteus morganii A15153, read-out: Minimum Inhibitory Concentration (M.I.C.); for Minimum Inhibitory Concentration (M.I.C.): Proteus morganii A15153
Source text: as §1

[11] = test system: K. pneumoniae A-15130; test: MIC, tube dilution, Klebsiella pneumoniae A15130; format: cell-based; conditions: overnight 37° C.; for MIC: Klebsiella pneumoniae, A15130, K. pneumoniae A15130, read-out: Minimum Inhibitory Concentration (M.I.C.); for Minimum Inhibitory Concentration (M.I.C.): K. pneumoniae A15130
Source text: as §1

[12] = test system: Ps. aeruginosa A-21213; test: MIC, tube dilution, Pseudomonas aeruginosa A21213; format: cell-based; conditions: overnight 37° C.; for MIC: Pseudomonas aeruginosa, A21213, Pseudomonas aeruginosa A21213, read-out: Minimum Inhibitory Concentration (M.I.C.); for Minimum Inhibitory Concentration (M.I.C.): Pseudomonas aeruginosa A21213
Source text: as §1

[13] = test system: Ent. cloacae A-9656; test: MIC, tube dilution, Enterobacter cloacae A9656; format: cell-based; conditions: overnight 37° C.; for MIC: Enterobacter cloacae, A9656, Enterobacter cloacae A9656, read-out: Minimum Inhibitory Concentration (M.I.C.); for Minimum Inhibitory Concentration (M.I.C.): Enterobacter cloacae A9656
Source text: as §1

[14] = test system: Str. faecalis A-20688; test: MIC, tube dilution, Streptococcus faecalis A20688; format: cell-based; conditions: overnight 37° C.; for MIC: Enterococcus faecalis, A20688, Str. faecalis A20688, read-out: Minimum Inhibitory Concentration (M.I.C.); for Minimum Inhibitory Concentration (M.I.C.): Str. faecalis A20688
Source text: as §1

[15] = test system: Proteus vulgaris A21559; test: MIC, tube dilution, Proteus vulgaris A21559; format: cell-based; conditions: overnight 37° C.; for MIC: Proteus vulgaris, A21559, Proteus vulgaris A21559, read-out: Minimum Inhibitory Concentration (M.I.C.); for Minimum Inhibitory Concentration (M.I.C.): Proteus vulgaris A21559
Source text: as §1

[16] = test system: Staph. aureus (Pen-Res) A-9606; test: MIC, tube dilution, Staphylococcus aureus A9606 (Pen-Res); format: cell-based; conditions: Staph. aureus A9606 (Pen-Res), overnight 37° C.; for MIC: Staphylococcus aureus, read-out: Minimum Inhibitory Concentration (M.I.C.)
Source text: as §1

[17] = test system: Ser. marcescens A-20019; test: MIC, tube dilution, Serratia marcescens A20019; format: cell-based; conditions: overnight 37° C.; for MIC: Serratia marcescens, A20019, Serratia marcescens A20019, read-out: Minimum Inhibitory Concentration (M.I.C.); for Minimum Inhibitory Concentration (M.I.C.): Serratia marcescens A20019
Source text: as §1

[18] = test system: Ent. cloacae A-9659; test: MIC, tube dilution, Enterobacter cloacae A9659; format: cell-based; conditions: overnight 37° C.; for MIC: Enterobacter cloacae, A9659, Enterobacter cloacae A9659, read-out: Minimum Inhibitory Concentration (M.I.C.); for Minimum Inhibitory Concentration (M.I.C.): Enterobacter cloacae A9659
Source text: as §1

[19] = test system: Staph. aureus A-9537 and 50% serum; test: MIC, tube dilution, Staph. aureus A9537 + 50% serum; format: cell-based, Staphylococcus aureus; conditions: overnight 37° C.; for MIC: Staphylococcus aureus, read-out: Minimum Inhibitory Concentration (M.I.C.)
Source text: as §1

[20] = test system: Str. pyogenes A-9604; test: MIC, tube dilution, Streptococcus pyogenes A9604; format: cell-based; conditions: overnight 37° C., Nutrient Broth; for MIC: Streptococcus pyogenes, A9604, Str. pyogenes A9604, read-out: Minimum Inhibitory Concentration (M.I.C.); for Minimum Inhibitory Concentration (M.I.C.): Str. pyogenes A9604
Source text: as §1

Row | SMILES | MIC [1] | MIC [2] | MIC [3] | MIC [4] | MIC [5] | MIC [6] | MIC [7] | MIC [8] | MIC [9] | MIC [10] | MIC [11] | MIC [12] | MIC [13] | MIC [14] | MIC [15] | MIC [16] | MIC [17] | MIC [18] | MIC [19] | MIC [20] | other results
1 | N=C(Cc1ccccc1)NCC1=C(C(=O)O)N2C(=O)CC2S1 (stereo not shown) [Example 107] | 63 µg/mL (≈ 199 µM) | > 63 µg/mL | > 63 µg/mL | 63 µg/mL (≈ 199 µM) | 0.5 µg/mL (≈ 1.58 µM) | 0.5 µg/mL (≈ 1.58 µM) | 63 µg/mL (≈ 199 µM) | 63 µg/mL (≈ 199 µM) | > 63 µg/mL | 63 µg/mL (≈ 199 µM) | > 63 µg/mL | 63 µg/mL (≈ 199 µM) | 63 µg/mL (≈ 199 µM) | > 63 µg/mL | 63 µg/mL (≈ 199 µM) | 32 µg/mL (≈ 101 µM) | 63 µg/mL (≈ 199 µM) | > 63 µg/mL | 16 µg/mL | 0.5 µg/mL (≈ 1.58 µM) | –
2 | CC1=C(C(=O)O)N2C(=O)[C@H]([C@H]3COC(C)(C)O3)[C@H]2S1 (relative stereo) [Example 104, (4'S,5R,6S and 4'R,5S,6R) 6-(2',2'-Dimethyl-1',3'-dioxolan-4'-yl)-2-methylpenem-3-carboxylic Acid (Isomer B)] | 63 µg/mL (≈ 221 µM) | > 63 µg/mL | > 63 µg/mL | 63 µg/mL (≈ 221 µM) | 63 µg/mL (≈ 221 µM) | 16 µg/mL (≈ 56.1 µM) | > 63 µg/mL | > 63 µg/mL | 63 µg/mL (≈ 221 µM) | > 63 µg/mL | > 63 µg/mL | 63 µg/mL (≈ 221 µM) | > 63 µg/mL | 63 µg/mL (≈ 221 µM) | > 63 µg/mL | 63 µg/mL (≈ 221 µM) | > 63 µg/mL | > 63 µg/mL | > 32 µg/mL | 32 µg/mL (≈ 112 µM) | –
3 | NCCSCC1=C(C(=O)O)N2C(=O)CC2S1 (stereo not shown) [Example 88, 2-(2-Aminoethylthiomethyl)penem-3-carboxylic Acid] | 8 µg/mL (≈ 30.7 µM) | > 63 µg/mL | 16 µg/mL (≈ 61.5 µM) | 63 µg/mL (≈ 242 µM) | 0.13 µg/mL (≈ 0.499 µM) | 0.13 µg/mL (≈ 0.499 µM) | 4 µg/mL (≈ 15.4 µM) | 4 µg/mL (≈ 15.4 µM) | 16 µg/mL (≈ 61.5 µM) | 8 µg/mL (≈ 30.7 µM) | 8 µg/mL (≈ 30.7 µM) | > 63 µg/mL | 32 µg/mL (≈ 123 µM) | 63 µg/mL (≈ 242 µM) | 16 µg/mL (≈ 61.5 µM) | 16 µg/mL (≈ 61.5 µM) | 8 µg/mL (≈ 30.7 µM) | 32 µg/mL (≈ 123 µM) | 0.5 µg/mL | 0.13 µg/mL (≈ 0.499 µM) | –
4 | NCCCCCC1=C(C(=O)O)N2C(=O)C[C@H]2S1 [Example 102, (5R) 2-(5'-aminopentyl)-penem-3-carboxylic acid] | – | – | – | – | – | – | – | – | – | – | – | – | – | – | – | – | – | – | – | – | Minimum Inhibitory Concentration (M.I.C.) [1]: 2 µg/mL; Minimum Inhibitory Concentration (M.I.C.) [2]: > 63 µg/mL; Minimum Inhibitory Concentration (M.I.C.) [3]: 16 µg/mL; Minimum Inhibitory Concentration (M.I.C.) [4]: 8 µg/mL; Minimum Inhibitory Concentration (M.I.C.) [5]: .03 µg/mL; Minimum Inhibitory Concentration (M.I.C.) [6]: .008 µg/mL; Minimum Inhibitory Concentration (M.I.C.) [7]: 1 µg/mL; Minimum Inhibitory Concentration (M.I.C.) [8]: 2 µg/mL; Minimum Inhibitory Concentration (M.I.C.) [9]: 8 µg/mL; Minimum Inhibitory Concentration (M.I.C.) [10]: 2 µg/mL; Minimum Inhibitory Concentration (M.I.C.) [11]: 2 µg/mL; Minimum Inhibitory Concentration (M.I.C.) [12]: > 63 µg/mL; Minimum Inhibitory Concentration (M.I.C.) [13]: 2 µg/mL; Minimum Inhibitory Concentration (M.I.C.) [14]: 4 µg/mL; Minimum Inhibitory Concentration (M.I.C.) [15]: 16 µg/mL; Minimum Inhibitory Concentration (M.I.C.) [16]: 2 µg/mL; Minimum Inhibitory Concentration (M.I.C.) [17]: 2 µg/mL; Minimum Inhibitory Concentration (M.I.C.) [18]: 4 µg/mL; Minimum Inhibitory Concentration (M.I.C.) [19]: .25 µg/mL; Minimum Inhibitory Concentration (M.I.C.) [20]: .016 µg/mL
5 | NC1CCC(C2=C(C(=O)O)N3C(=O)C[C@H]3S2)C1 (single isomer, unassigned) [98 isomer C, 2-(3-Aminocyclopentyl)-penem-3-carboxylic acid] | – | – | – | – | – | – | – | – | – | – | – | – | – | – | – | – | – | – | – | – | Minimum Inhibitory Concentration (M.I.C.) [1]: 4 µg/mL; Minimum Inhibitory Concentration (M.I.C.) [2]: > 63 µg/mL; Minimum Inhibitory Concentration (M.I.C.) [3]: 16 µg/mL; Minimum Inhibitory Concentration (M.I.C.) [4]: 32 µg/mL; Minimum Inhibitory Concentration (M.I.C.) [5]: .13 µg/mL; Minimum Inhibitory Concentration (M.I.C.) [6]: .06 µg/mL; Minimum Inhibitory Concentration (M.I.C.) [7]: 2 µg/mL; Minimum Inhibitory Concentration (M.I.C.) [8]: 8 µg/mL; Minimum Inhibitory Concentration (M.I.C.) [9]: > 63 µg/mL; Minimum Inhibitory Concentration (M.I.C.) [10]: 16 µg/mL; Minimum Inhibitory Concentration (M.I.C.) [11]: 8 µg/mL; Minimum Inhibitory Concentration (M.I.C.) [12]: > 63 µg/mL; Minimum Inhibitory Concentration (M.I.C.) [13]: 8 µg/mL; Minimum Inhibitory Concentration (M.I.C.) [14]: 32 µg/mL; Minimum Inhibitory Concentration (M.I.C.) [15]: 16 µg/mL; Minimum Inhibitory Concentration (M.I.C.) [16]: > 63 µg/mL; Minimum Inhibitory Concentration (M.I.C.) [17]: 8 µg/mL; Minimum Inhibitory Concentration (M.I.C.) [18]: 16 µg/mL; Minimum Inhibitory Concentration (M.I.C.) [19]: 4 µg/mL; Minimum Inhibitory Concentration (M.I.C.) [20]: .06 µg/mL
